From patent US4859669A, “Antiinflammatory and anti-hyperproliferative naphthyridin-4-ones” (Schering Corporation, priority 1987, dated 1989)
Like-named read-outs stand apart in the source and are kept apart here.

Tests used:
pleural cavity of rats = test: Reverse passive Arthus reaction in the pleural cavity of rats (Myers et al.); assay type: in vivo; conditions: po; rat
Description: Another procedure for testing for acute antiinflammatory activity measures the reverse passive Arthus reaction in the pleural cavity of rats as described in Myers et al., Inflammation, Vol. 9, No. 1, 1985, pp. 91-98.

5-lipoxygenase = target: T1, 5-lipoxygenase (Rattus norvegicus, UniProt P12527); test: Lipoxygenase assay: arachidonic acid metabolism in rat neutrophils; assay type: cell-based; conditions: compound 5×10^-5 Molar
T1 construct: endogenous in cells; host or cells: neutrophils isolated from the pleural exudate of male Wistar-Lewis rats (given "Witar-Lewis" in the source) after BSA / anti-BSA challenge
T1 sequence (P12527 1-673): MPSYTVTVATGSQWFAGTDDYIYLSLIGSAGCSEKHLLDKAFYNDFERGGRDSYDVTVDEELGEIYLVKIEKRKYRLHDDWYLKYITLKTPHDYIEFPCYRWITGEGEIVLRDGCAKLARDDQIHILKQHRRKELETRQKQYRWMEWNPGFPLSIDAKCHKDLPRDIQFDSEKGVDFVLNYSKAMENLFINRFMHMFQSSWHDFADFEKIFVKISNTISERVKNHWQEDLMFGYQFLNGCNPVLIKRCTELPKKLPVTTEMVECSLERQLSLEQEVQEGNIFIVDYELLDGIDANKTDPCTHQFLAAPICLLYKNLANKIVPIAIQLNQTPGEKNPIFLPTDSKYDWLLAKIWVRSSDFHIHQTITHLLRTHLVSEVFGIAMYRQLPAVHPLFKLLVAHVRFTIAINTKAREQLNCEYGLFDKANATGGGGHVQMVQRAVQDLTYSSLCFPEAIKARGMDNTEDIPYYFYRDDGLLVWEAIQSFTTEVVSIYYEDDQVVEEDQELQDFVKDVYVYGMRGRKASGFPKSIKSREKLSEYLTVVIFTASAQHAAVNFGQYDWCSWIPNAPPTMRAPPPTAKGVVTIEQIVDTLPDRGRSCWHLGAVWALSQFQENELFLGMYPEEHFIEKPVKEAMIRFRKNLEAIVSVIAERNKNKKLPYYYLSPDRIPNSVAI
Protocol: The effect of the compounds of the invention on 5-lipoxygenase activity is determined using rat neutrophils. Male Witar-Lewis rats are injected intravenously with 5 mg BSA in 0.2 ml pyrogen free saline followed by an intrapleural injection of 500 ug of the IgG fraction of rabbit anti-BSA (Cappel Labs., Lot 17782) in 0.2 ml pyrogen free saline. Injections are made under light ether anesthesia. Four hours later, the pleural cavity exudate consisting of 85 to 95% neutrophils is removed. Neutrophils are isolated from the pleural exudates by centrifugation of 4° C. for 10 min at 200× g. The cell pellet is resuspended in 17 mM Tris is HCl buffer, pH 7.2, containing 0.75% NH4 Cl to lyse contaminating erythrocytes followed by centrifugation at 4° C. for 5 min at 200× g. The pelleted neutrophils are rewashed in 50 mM Tris HCl, pH 7.4, containing 100 mM NaCl, followed by the same centrifugation. The cell pellet is resuspended in 50 mM Tris HCl, pH 7.4, containing 100 mM NaCl and 1 mM CaCl2, at 3-12×10^7 intact neutrophils per ml.
Solutions of compounds in methanol are dried, then resuspended in the cell suspension for 4 min. Arachidonic acid methabolism is determined by incubating 0.1 ml of this suspension with 40 μM [1-^14 C] arachidonic acid (AA) (Amersham, 59 Ci/mole), in the presence of 0.1% BRIJ 56 and 10 μM A23187. Arachidonic acid metabolism as well as the various drug and reagent abbreviations are described in detail in Arch. Dermatol, Vol. 119, pages 541 to 547 (July 1983), the teachings of which are incorporated herein by reference. Assays run in triplicate are initiated by adding cells with inhibitor to a film of the BRIJ 56, arachidonic acid and A23187 37° C. After one minute, reactions are terminated by the addition of 2.4 ml of a chloroform:methanol (1:1 v/v) mixture and 0.9 ml of 0.1% formic acid. […] Products, leukotriene B4 (LTB4), 12-hydroxy heptadecatrienoic acid (HHT) and 5-hydroxy icosatetraenoic acid (5-HETE), are located by autoradiography and appropriate regions of the thin layer plates are scraped and counted in a liquid scintillation counter. […]

[1] = tested on: Male Lewis inbred albino rats; test: Reversed passive Arthus reaction (RPAR), rat paw volume; assay type: in vivo; conditions: po, 1 h, dosed one hour prior to sensitization with BSA
Protocol: REVERSED PASSIVE ARTHUS REACTION (RPAR) ANIMALS, MATERIALS AND METHODS
Male Lewis inbred albino rats weighting 180-220 grams obtained from Charles River Breeding Laboratories are used in these experiments. The rats are housed 3 animals/cage and food and water are allowed ad libitum. The animals are numbered 1-3 in each cage and color marked for identification purposes.
All reagents and drugs are prepared just prior to the study. Crystallized and lyophilized bovine serum albumin (BSA), obtained from Sigma Chemical Company, is solubilized without shaking in cold sterile pyrogen free saline (10 mg/ml). Lyophilized anti-bovine serum albumin (IgG Fraction), obtained from Cappel Laboratories, is suspended in sterile distilled water and diluted with cold pyrogen free saline (PFS) just prior to use. The final concentration of anti-bovine serum albumin is 0.5 mg/ml of PFS. Both BSA and anti-BSA solutions are iced during use. Drugs are suspended or solubilized in an aqueous solution of methyl cellulose (MC) with a homogenizer just prior to administration.
Groups of animals (6/group) are dosed with drug in MC by gavage one hour prior to sensitization with BSA. […] The volume of mercury displaced is converted to weight and recorded. […] Paw volumes are also recorded with a plethysmograph during the development of the inflammation at 2 and 4 hours post-challenge.

Row | SMILES | ED50 (pleural cavity of rats) | inhibition at 50 µM (5-lipoxygenase; read-out: inhibition of HETE production) | inhibition at 50 µM (5-lipoxygenase; read-out: inhibition of HHT production) | inhibition at 50 µM (5-lipoxygenase; read-out: inhibition of LTB4 production) | ED50 [1]
1 | CCOC(=O)N1CCc2c1c1cccnc1n(-c1ccccc1)c2=O [2,3,4,5-tetrahydro-4-oxo-5-phenyl-1H-pyrrolo[3,2-c][1,8]napthyridine-1-carboxylic acid, ethyl ester] | ~25 mg/kg |  |  |  | 
2 | O=c1c2c(c3cccnc3n1-c1ccccc1)N(c1ccccc1)CC2 [1,2,3,5-tetrahydro-1,5-diphenyl-4H-pyrrolo[3,2-c][1,8]napthyridin-4-one] |  | 60% | ~40% | 60% | 
3 | O=c1c2c(c3cccnc3n1-c1ccccc1)NCC2 [1,2,3,5-tetrahydro-5-phenyl-4H-pyrrolo[3,2-c][1,8]naphthyridin-4-one] | < 25 mg/kg |  |  |  | ~25 mg/kg
